Laboratory results reported in PubChem BioAssay AID1963830 (Molecular Pharmacology Branch, DTP, NCI, 2024).

System: 922993-354-T-J3-PDC complex spheroid viability
Experiment: Anticancer human tumor 922993-354-T-J3-PDC patient-derived endometrial carcinoma cell line growth inhibition [POLQ]
Details: for IC50: curve of first compound; for viability, T/C: stronger effect = lower value
Procedure, shortened: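 Growth inhibition in 3D: complex spheroids (tumor PDC, HUVEC, MSC) treated with POLQ inhibitor combinations; where Cmax unknown, highest tested concentration 10 microM, except SN-38 at 1 microM.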
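Also: spheroids exposed to the agents for one week.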
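For viability, T/C in this document: 100% = DMSO vehicle control wells.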

Question: Which IC50 (second compound 0.0316 µM) does the source give for `CC1COCCN1c1cc(C2(O)CC3CCC(C2)O3)c2cnn(-c3ccn[nH]3)c2n1` (configuration not stated) + Nc1ccc(C#CCN(C(=O)Cc2ncc(C(F)(F)F)cc2C(F)(F)F)c2ccc(F)cc2)nn1 here?
Answer: 2080 nM

Question: What about the IC50 (second compound 0.1 µM) of the same compound?
Answer: 2160 nM

Question: And the IC50 (second compound 0.316 µM)?
Answer: 2270 nM

Question: And the IC50 (second compound 1 µM)?
Answer: 2370 nM

Question: And the IC50 (second compound 3.16 µM)?
Answer: 1310 nM

Question: What about the IC50 (second compound 10 µM) of the same compound?
Answer: 453 nM

Question: And the viability, T/C (second compound 0.0316 µM, first compound 0.0316 µM)?
Answer: 102%

Question: What about the viability, T/C (second compound 0.0316 µM, first compound 0.1 µM) of the same compound?
Answer: 105%

Question: And the viability, T/C (second compound 0.0316 µM, first compound 0.316 µM)?
Answer: 89.1%

Question: What about the viability, T/C (second compound 0.0316 µM, first compound 1 µM) of the same compound?
Answer: 74.9%

Question: And the viability, T/C (second compound 0.0316 µM, first compound 3.16 µM)?
Answer: 35.3%

Question: What about the viability, T/C (second compound 0.0316 µM, first compound 10 µM) of the same compound?
Answer: 21.3%

Question: And the viability, T/C (second compound 0.1 µM, first compound 0.0316 µM)?
Answer: 108%

Question: What about the viability, T/C (second compound 0.1 µM, first compound 0.1 µM) of the same compound?
Answer: 107%

Question: What about the viability, T/C (second compound 0.1 µM, first compound 0.316 µM) of the same compound?
Answer: 98.7%

Question: What about the viability, T/C (second compound 0.1 µM, first compound 1 µM) of the same compound?
Answer: 76.7%

Question: What about the viability, T/C (second compound 0.1 µM, first compound 3.16 µM) of the same compound?
Answer: 36.8%

Question: What about the viability, T/C (second compound 0.1 µM, first compound 10 µM) of the same compound?
Answer: 16.2%

Question: What about the viability, T/C (second compound 0.316 µM, first compound 0.0316 µM) of the same compound?
Answer: 106%

Question: What about the viability, T/C (second compound 0.316 µM, first compound 0.1 µM) of the same compound?
Answer: 102%

Question: And the viability, T/C (second compound 0.316 µM, first compound 0.316 µM)?
Answer: 92.9%

Question: And the viability, T/C (second compound 0.316 µM, first compound 1 µM)?
Answer: 75.8%

Question: What about the viability, T/C (second compound 0.316 µM, first compound 3.16 µM) of the same compound?
Answer: 38.9%

Question: What about the viability, T/C (second compound 0.316 µM, first compound 10 µM) of the same compound?
Answer: 20.7%

Question: What about the viability, T/C (second compound 1 µM, first compound 0.0316 µM) of the same compound?
Answer: 105%

Question: And the viability, T/C (second compound 1 µM, first compound 0.1 µM)?
Answer: 94.3%

Question: What about the viability, T/C (second compound 1 µM, first compound 0.316 µM) of the same compound?
Answer: 89.2%

Question: What about the viability, T/C (second compound 1 µM, first compound 1 µM) of the same compound?
Answer: 74.7%

Question: And the viability, T/C (second compound 1 µM, first compound 3.16 µM)?
Answer: 40.9%

Question: And the viability, T/C (second compound 1 µM, first compound 10 µM)?
Answer: 14.9%

Question: What about the viability, T/C (second compound 3.16 µM, first compound 0.0316 µM) of the same compound?
Answer: 97.8%

Question: And the viability, T/C (second compound 3.16 µM, first compound 0.1 µM)?
Answer: 101%

Question: And the viability, T/C (second compound 3.16 µM, first compound 0.316 µM)?
Answer: 80.4%

Question: What about the viability, T/C (second compound 3.16 µM, first compound 1 µM) of the same compound?
Answer: 59.3%

Question: What about the viability, T/C (second compound 3.16 µM, first compound 3.16 µM) of the same compound?
Answer: 26%

Question: What about the viability, T/C (second compound 3.16 µM, first compound 10 µM) of the same compound?
Answer: 12.2%

Question: What about the viability, T/C (second compound 10 µM, first compound 0.0316 µM) of the same compound?
Answer: 99.4%

Question: What about the viability, T/C (second compound 10 µM, first compound 0.1 µM) of the same compound?
Answer: 90.9%

Question: And the viability, T/C (second compound 10 µM, first compound 0.316 µM)?
Answer: 62.4%

Question: And the viability, T/C (second compound 10 µM, first compound 1 µM)?
Answer: 22.9%

Question: What about the viability, T/C (second compound 10 µM, first compound 3.16 µM) of the same compound?
Answer: 19.4%

Question: And the viability, T/C (second compound 10 µM, first compound 10 µM)?
Answer: 10.9%
